The record followed here is patent publication US12552783B2, “Modulators of proteolysis and associated methods of use” (Arvinas Operations, Inc., priority 2018, dated 2026).

SMILES strings stand for the structures.

This experiment has as its target KRas (Homo sapiens, UniProt P01116, G12C). The experiment is described as follows: KRas degradation in SW1573 cells by Western blot, normalized to GAPDH (data of Table 14). The class given is cell-based. The conditions noted are these: SW1573 cells. The procedure:
Cell Lines, Antibodies, and Reagents. NCI-H2030 (CRL-5914) and SW1573 (CRL-2170) cells were purchased from ATCC. Both cell lines are homozygous for the G12C mutation in KRas. NCI-H2030 cells were cultured in RPMI-1640 medium containing 1% penicillin-streptomycin and 10% fetal bovine serum (FBS). SW1573 cells were cultured in DMEM containing 1% penicillin-streptomycin and 10% FBS. The KRas detection antibody (Cat. No. LS-C175665) was purchased from LifeSpan Biosciences and was used at a dilution of 1:2000. GAPDH was detected using an antibody purchased from Cell Signaling Technology (Cat. No. 5174) and was diluted 1:3000. Secondary anti-mouse and anti-rabbit detection antibodies were purchased from Cell Signaling Technology (Cat. Nos. 7076 and 7074, respectively).
Compound Treatment and Western Blotting of the Data of Table 14. Either NCI-H2030 or SW1573 cells were plated in 12-well plates and allowed to adhere overnight at 37° C. in an incubator containing 5% CO2. The following day, the medium was replaced with the appropriate medium lacking FBS to induce starvation. Cells were returned to the incubator for an additional 24 hours following media exchange. […] Cells were treated with VHL-based compounds for 24 hours and all other compounds for 72 hours. Following treatment, cells were lysed in RIPA buffer (Thermo Fisher Cat. No. 89900) containing phosphatase (Thermo Fisher Cat. No. 1861277) and protease (Thermo Fisher Cat. No. 78429) inhibitor cocktails. Lysates were cleared at 13,000 rpm for 15 minutes and supernatants were assayed for total protein concentration using the Pierce BCA assay system (Thermo Fisher Cat. No. 23225). For each sample, 10 μg total protein was resolved on a 12% Bis-Tris gel and then transferred to a nitrocellulose membrane. After blocking in 3% BSA in TBST (Tris-buffered Saline with 0.1% Tween-20) for 1 hour at room temperature, membranes were probed with the primary antibody (LS Bio Cat. No. LS-C175665) overnight at 4° C. After incubation with the secondary antibody, the following day membranes were visualized using the SuperSignal™ West Femto substrate (Thermo Fisher Cat. No. 34095). The KRas signal in each lane was normalized to GAPDH and percent degradation was either estimated as less than 25% by visual inspection (C in Table 13) or quantitated relative to the DMSO control lane using BIO-RAD Image Lab 5.2.1, and all data was plotted using GraphPad PRISM 6.07.
DC50 is the half-maximal degradation concentration—i.e., the concentration at which 50% degradation is observed. DMax is the maximum degradation efficacy is achieved—i.e., the maximal degradation observed) degradation data.
(In general: A western blot detects proteins with antibodies after separation by electrophoresis.)

`Cc1ncsc1-c1ccc([C@H](C)NC(=O)[C@@H]2C[C@@H](O)CN2C(=O)[C@@H](NC(=O)COCCOCCOCCOCCOCCOC2CCN(C[C@@H](C)Oc3nc(N4CCN(C(=O)C(O)O)CC4)c4cc(Cl)c(-c5cc(O)cc6ccccc56)c(F)c4n3)CC2)C(C)(C)C)cc1` [compound 248, (2S,4R)-1-((2S)-2-(tert-butyl)-20-((1-((2R)-2-((6-chloro-4-(4-(2,2-dihydroxyacetyl)piperazin-1-yl)-8-fluoro-7-(3-hydroxynaphthalen-1-yl)quinazolin-2-yl)oxy)propyl)piperidin-4-yl)oxy)-4-oxo-6,9,12,15,18-pentaoxa-3-azaicosanoyl)-4-hydroxy-N-((S)-1-(4-(4-methylthiazol-5-yl)phenyl)ethyl)pyrrolidine-2-carboxamide]: the “Percent Degradation at Indicated Concentration (μM)” value (shortened to “Percent Degradation”) reads like this: (0.3 μM) “C (Percent Degradation: C ≤ 35)”; (1 μM) “C (Percent Degradation: C ≤ 35)”; (3 μM) “C (Percent Degradation: C ≤ 35)”.

As to `CN1C[C@H](OCCOCCOc2ccc3c(c2)C(=O)N(C2CCC(=O)NC2=O)C3=O)C[C@H]1COc1nc2c(c(N3CCN(C(N)=O)[C@@H](CC#N)C3)n1)CCN(c1cccc3ccccc13)C2` (stereo partly drawn) [compound 539, (2S)-2-(cyanomethyl)-4-(2-(((2S,4R)-4-(2-(2-((2-(2,6-dioxopiperidin-3-yl)-1,3-dioxoisoindolin-5-yl)oxy)ethoxy)ethoxy)-1-methylpyrrolidin-2-yl)methoxy)-7-(naphthalen-1-yl)-5,6,7,8-tetrahydropyrido[3,4-d]pyrimidin-4-yl)piperazine-1-carboxamide], the “Percent Degradation” value runs as follows: (0.03 μM) “C (Percent Degradation: C ≤ 35)”; (0.1 μM) “C (Percent Degradation: C ≤ 35)”; (0.3 μM) “C (Percent Degradation: C ≤ 35)”; (1 μM) “C (Percent Degradation: C ≤ 35)”; (3 μM) “C (Percent Degradation: C ≤ 35)”.

As for `Cc1ncsc1-c1ccc([C@H](C)NC(=O)[C@@H]2C[C@@H](O)CN2C(=O)[C@@H](NC(=O)COCCOCCOCCOCCOC2CCN(C[C@@H](C)Oc3nc(N4CCN(C(=O)C(O)O)CC4)c4cc(Cl)c(-c5cc(O)cc6ccccc56)c(F)c4n3)CC2)C(C)(C)C)cc1` [compound 247, (2S,4R)-1-((2S)-2-(tert-butyl)-17-((1-((2R)-2-((6-chloro-4-(4-(2,2-dihydroxyacetyl)piperazin-1-yl)-8-fluoro-7-(3-hydroxynaphthalen-1-yl)quinazolin-2-yl)oxy)propyl)piperidin-4-yl)oxy)-4-oxo-6,9,12,15-tetraoxa-3-azaheptadecanoyl)-4-hydroxy-N-((S)-1-(4-(4-methylthiazol-5-yl)phenyl)ethyl)pyrrolidine-2-carboxamide], the “Percent Degradation” value reads like this: (0.3 μM) “C (Percent Degradation: C ≤ 35)”; (1 μM) “C (Percent Degradation: C ≤ 35)”; (3 μM) “C (Percent Degradation: C ≤ 35)”.

Turning to `C=CC(=O)N1CCN(c2nc(O[C@H](C)CN3CCC(OCCNc4cccc5c4C(=O)N(C4CCC(=O)NC4=O)C5=O)CC3)nc3c2CCN(c2cc(O)cc4ccccc24)C3)CC1` (stereo partly drawn) [compound 411, 4-((2-((1-((R)-2-((4-(4-acryloylpiperazin-1-yl)-7-(3-hydroxynaphthalen-1-yl)-5,6,7,8-tetrahydropyrido[3,4-d]pyrimidin-2-yl)oxy)propyl)piperidin-4-yl)oxy)ethyl)amino)-2-(2,6-dioxopiperidin-3-yl)isoindoline-1,3-dione], the “Percent Degradation” value (0.1 μM) is “C (Percent Degradation: C ≤ 35)”, the “Percent Degradation” value (0.3 μM) is “C (Percent Degradation: C ≤ 35)” and the “Percent Degradation” value (1 μM) is on record as “C (Percent Degradation: C ≤ 35)”.

Take `C=CC(=O)N1CCN(c2nc(O[C@H](C)CN3CCC(OCCOCCOCCOc4cc(-c5scnc5C)ccc4CNC(=O)[C@@H]4C[C@@H](O)CN4C(=O)[C@H](c4cc(C)no4)C(C)C)CC3)nc3c2CCN(c2cc(O)cc4ccccc24)C3)CC1` [compound 441, (2S,4R)-N-(2-(2-(2-(2-((1-((R)-2-((4-(4-acryloylpiperazin-1-yl)-7-(3-hydroxynaphthalen-1-yl)-5,6,7,8-tetrahydropyrido[3,4-d]pyrimidin-2-yl)oxy)propyl)piperidin-4-yl)oxy)ethoxy)ethoxy)ethoxy)-4-(4-methylthiazol-5-yl)benzyl)-4-hydroxy-1-((S)-3-methyl-2-(3-methylisoxazol-5-yl)butanoyl)pyrrolidine-2-carboxamide]: the “Percent Degradation” value (0.1 μM) is “C (Percent Degradation: C ≤ 35)”, the “Percent Degradation” value (0.3 μM) was “C (Percent Degradation: C ≤ 35)” and the “Percent Degradation” value (1 μM) was “C (Percent Degradation: C ≤ 35)”.

As to `C=CC(=O)N1CCN(c2nc(O[C@H](C)CN3CCN(CC4CCN(CC(=O)N[C@H](C(=O)N5C[C@H](O)C[C@H]5C(=O)N[C@@H](C)c5ccc(-c6scnc6C)cc5)C(C)(C)C)CC4)CC3)nc3c(F)c(-c4cc(O)cc5ccccc45)c(Cl)cc23)CC1` [compound 404, (2S,4R)-1-((2S)-2-(2-(4-((4-((2R)-2-((4-(4-acryloylpiperazin-1-yl)-6-chloro-8-fluoro-7-(3-hydroxynaphthalen-1-yl)quinazolin-2-yl)oxy)propyl)piperazin-1-yl)methyl)piperidin-1-yl)acetamido)-3,3-dimethylbutanoyl)-4-hydroxy-N-((S)-1-(4-(4-methylthiazol-5-yl)phenyl)ethyl)pyrrolidine-2-carboxamide], the “Percent Degradation” value is “B (35 < B < 70)” (0.1 μM), “A (A > 70)” (0.3 μM) and “A (A > 70)” (1 μM).

`C=CC(=O)N1CCN(c2nc(O[C@H](C)CN3CCC(OCCOCCOc4cc([C@@H](C(=O)N5C[C@H](O)C[C@H]5C(=O)N[C@@H](C)c5ccc(-c6scnc6C)cc5)C(C)C)on4)CC3)nc3c(F)c(-c4cc(O)cc5ccccc45)c(Cl)cc23)CC1` [compound 526, (2S,4R)-1-((2S)-2-(3-(2-(2-((1-((2R)-2-((4-(4-acryloylpiperazin-1-yl)-6-chloro-8-fluoro-7-(3-hydroxynaphthalen-1-yl)quinazolin-2-yl)oxy)propyl)piperidin-4-yl)oxy)ethoxy)ethoxy)isoxazol-5-yl)-3-methylbutanoyl)-4-hydroxy-N-((S)-1-(4-(4-methylthiazol-5-yl)phenyl)ethyl)pyrrolidine-2-carboxamide]: the “Percent Degradation” value is “C (Percent Degradation: C ≤ 35)” (0.03 μM), “C (Percent Degradation: C ≤ 35)” (0.1 μM) and “C (Percent Degradation: C ≤ 35)” (0.3 μM).

On to `C[C@H](CN1CCC(OCCOCCOCCOCCOCCOc2ccc3c(c2)C(=O)N(C2CCC(=O)NC2=O)C3=O)CC1)Oc1nc(N2CCN(C(=O)C(O)O)CC2)c2cc(Cl)c(-c3cc(O)cc4ccccc34)c(F)c2n1` (stereo partly drawn) [compound 515, 5-((14-((1-((2R)-2-((6-chloro-4-(4-(2,2-dihydroxyacetyl)piperazin-1-yl)-8-fluoro-7-(3-hydroxynaphthalen-1-yl)quinazolin-2-yl)oxy)propyl)piperidin-4-yl)oxy)-3,6,9,12-tetraoxatetradecyl)oxy)-2-(2,6-dioxopiperidin-3-yl)isoindoline-1,3-dione], for which the “Percent Degradation” value is, setting by setting: (0.3 μM) “C (Percent Degradation: C ≤ 35)”; (1 μM) “C (Percent Degradation: C ≤ 35)”; (3 μM) “C (Percent Degradation: C ≤ 35)”.

As to `C=CC(=O)N1CCN(c2nc(O[C@H](C)CN3CCC(OCCOCCOCCOCCOCCOc4cc(-c5scnc5C)ccc4CNC(=O)[C@@H]4C[C@@H](O)CN4C(=O)[C@H](c4cc(C)no4)C(C)C)CC3)nc3c2CCN(c2cc(O)cc4ccccc24)C3)CC1` [compound 444], the “Percent Degradation” value is on record as “C (Percent Degradation: C ≤ 35)” (0.1 μM), “C (Percent Degradation: C ≤ 35)” (0.3 μM) and “C (Percent Degradation: C ≤ 35)” (1 μM).
